Results on seven compounds are retold here after patent publication US7709481B2, “Phenyl-1,2,4-oxadiazolone derivatives, processes for their preparation and methods for their use as pharmaceuticals” (Sanofi-Aventis, priority 2005, dated 2010).

Like-named read-outs stand apart in the source and are kept apart here. Where only a bound is given, the exact number is not on record here.

The target of one experiment is T1, human PPARalpha (Homo sapiens, UniProt Q07869).
T1 construct: human PPARalpha receptor (amino acids S167-Y468); expressed in transfected cells; plasmid pcDNA3
T1 sequence (Q07869 167-468): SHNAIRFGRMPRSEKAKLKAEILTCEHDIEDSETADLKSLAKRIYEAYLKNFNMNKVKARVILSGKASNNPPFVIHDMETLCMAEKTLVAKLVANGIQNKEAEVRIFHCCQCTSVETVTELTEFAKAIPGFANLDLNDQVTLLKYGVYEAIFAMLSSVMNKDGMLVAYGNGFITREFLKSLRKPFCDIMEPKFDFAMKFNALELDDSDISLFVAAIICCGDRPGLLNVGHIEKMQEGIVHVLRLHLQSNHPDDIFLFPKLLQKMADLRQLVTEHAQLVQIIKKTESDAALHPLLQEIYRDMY
As to the kind of experiment: Cellular PPARalpha assay (HEK PPARalpha reporter cell line, luciferase). The format is cell-based. Particulars: 24 h incubation. The protocol: The activity of the compounds was tested as follows. The potency of substances which bind to human PPARalpha and activate it in an agonistic manner is analyzed using a stably transfected HEK cell line (HEK=human embryo kidney) which is referred to here as PPARalpha reporter cell line. It contains two genetic elements, a luciferase reporter element (pdeltaM-GAL4-Luc-Zeo) and a PPARalpha fusion protein (GR-GAL4-humanPPARalpha-LBD) which mediates expression of the luciferase reporter element depending on a PPARalpha ligand. The stably and constitutively expressed fusion protein GR-GAL4-humanPPARalpha-LBD binds in the cell nucleus of the PPARalpha reporter cell line via the GAL4 protein portion to the GAL4 DNA binding motifs 5′-upstream of the luciferase reporter element which is stably integrated in the genome of the cell line. There is only weak expression of the luciferase reporter gene in the absence of a PPARalpha ligand if fatty acid-depleted fetal calf serum (cs-FCS) is used in the assay. PPARalpha ligands bind and activate the PPARalpha fusion protein and thereby stimulate the expression of the luciferase reporter gene. The luciferase which is formed can be detected by means of chemiluminescence via an appropriate substrate.
The PPARalpha reporter cell line was prepared in two stages. Firstly, the luciferase reporter element was constructed and stably transfected into HEK cells. For this purpose, five binding sites of the yeast transcription factor GAL4 (Accession # AF264724) were cloned in 5′-upstream of a 68 bp-long minimal MMTV promoter (Accession # V01175). The minimal MMTV promoter section contains a CCAAT box and a TATA element in order to enable efficient transcription by RNA polymerase II. The cloning and sequencing of the GAL4-MMTV construct took place in analogy to the description of Sambrook J. et. al. (Molecular cloning, Cold Spring Harbor Laboratory Press, 1989). Then the complete Photinus pyralis gene (Accession # M15077) was cloned in 3′-downstream of the GAL4-MMTV element. After sequencing, the luciferase reporter element consisting of five GAL4 binding sites, MMTV promoter and luciferase gene was recloned into a plasmid which confers zeocin resistance in order to obtain the plasmid pdeltaM-GAL4-Luc-Zeo. This vector was transfected into HEK cells in accordance with the statements in Ausubel, F. M. et al. (Current protocols in molecular biology, Vol. 1-3, John Wiley & Sons, Inc., 1995).
In a second step, the PPARalpha fusion protein (GR-GAL4-humanPPARalpha-LBD was introduced into the stable cell clone described. For this purpose, initially the cDNA coding for the N-terminal 76 amino acids of the glucocorticoid receptor (Accession # P04150) was linked to the cDNA section coding for amino acids 1-147 of the yeast transcription factor GAL4 (Accession # P04386). The cDNA of the ligand-binding domain of the human PPARalpha receptor (amino acids S167-Y468; Accession # S74349) was cloned in at the 3′-end of this GR-GAL4 construct. The fusion construct prepared in this way (GR-GAL4-humanPPARalpha-LBD) was recloned into the plasmid pcDNA3 (Invitrogen) in order to enable constitutive expression therein by the cytomegalovirus promoter. This plasmid was linearized with a restriction endonuclease and stably transfected into the previously described cell clone containing the luciferase reporter element. The finished PPARalpha reporter cell line which contains a luciferase reporter element and constitutively expresses the PPARalpha fusion protein (GR-GAL4-human PPARalpha-LBD) was isolated by selection with zeocin (0.5 mg/ml) and G418 (0.5 mg/ml).
The activity of PPARalpha agonists is determined in a 3-day assay which is described below: […]

The next experiment has as its target T2, human PPARdelta (Homo sapiens, UniProt Q03181).
T2 construct: human PPARdelta receptor (amino acids S139-Y441); expressed in transfected cells; plasmid pcDNA3
T2 sequence (Q03181 139-441): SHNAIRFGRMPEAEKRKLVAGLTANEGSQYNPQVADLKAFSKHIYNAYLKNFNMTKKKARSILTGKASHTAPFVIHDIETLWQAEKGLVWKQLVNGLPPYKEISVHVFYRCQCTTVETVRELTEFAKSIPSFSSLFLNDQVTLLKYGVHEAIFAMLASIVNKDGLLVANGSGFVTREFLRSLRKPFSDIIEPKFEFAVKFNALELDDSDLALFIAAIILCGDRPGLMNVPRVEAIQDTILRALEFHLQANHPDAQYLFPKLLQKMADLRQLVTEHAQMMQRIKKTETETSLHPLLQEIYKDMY
Briefly: Cellular PPARdelta assay (HEK PPARdelta reporter cell line, luciferase). Particulars: 24 h incubation. The format is cell-based. The protocol: The raw data from the luminometer are transferred into a Microsoft Excel file. Dose-effect plots and EC50 values of PPAR agonists are calculated using the XL.Fit program as specified by the manufacturer (IDBS). […] Compounds of the invention of the formula I activate the PPARalpha receptor. Determination of EC50 values of PPAR agonists in the cellular PPARdelta assay The potency of substances which bind to human PPARdelta and activate it in an agonistic manner is analyzed using a stably transfected HEK cell line (HEK=human embryo kidney) which is referred to here as PPARdelta reporter cell line. In analogy to the assay described for PPARalpha, the PPARdelta reporter cell line also contains two genetic elements, a luciferase reporter element (pdeltaM-GAL4-Luc-Zeo) and a PPARdelta fusion protein (GR-GAL4-humanPPARdelta-LBD) which mediates expression of the luciferase reporter element depending on a PPARdelta ligand. The stably and constitutively expressed fusion protein GR-GAL4-humanPPARdelta-LBD binds in the cell nucleus of the PPARdelta reporter cell line via the GAL4 protein portion to the GAL4 DNA binding motifs 5′-upstream of the luciferase reporter element which is stably integrated in the genome of the cell line. There is only little expression of the luciferase reporter gene in the absence of a PPARdelta ligand if fatty acid-depleted fetal calf serum (cs-FCS) is used in the assay. PPARdelta ligands bind and activate the PPARdelta fusion protein and thereby stimulate expression of the luciferase reporter gene. The luciferase which is formed can be detected by means of chemiluminescence via an appropriate substrate.
The production of the stable PPARdelta reporter cell line is based on a stable HEK-cell clone which was stably transfected with a luciferase reporter element. This step was already described above in the section “construction of the PPARalpha reporter cell line”. In a second step, the PPARdelta fusion protein (GR-GAL4-humanPPARdelta-LBD was stably introduced into this cell clone. For this purpose, the cDNA coding for the N-terminal 76 amino acids of the glucocorticoid receptor (Accession # P04150) was linked to the cDNA section coding for amino acids 1-147 of the yeast transcription factor GAL4 (Accession # P04386). The cDNA of the ligand-binding domain of the human PPARdelta receptor (amino acids S139-Y441; Accession # L07592) was cloned in at the 3′-end of this GR-GAL4 construct. The fusion construct prepared in this way (GR-GAL4-humanPPARdelta-LBD) was recloned into the plasmid pcDNA3 (Invitrogen) in order to enable constitutive expression by the cytomegalovirus promoter. This plasmid was linearized with a restriction endonuclease and stably transfected into the previously described cell clone containing the luciferase reporter element. The resulting PPARdelta reporter cell line which contains a luciferase reporter element and constitutively expresses the PPARdelta fusion protein (GR-GAL4-human PPARdelta-LBD) was isolated by selection with zeocin (0.5 mg/ml) and G418 (0.5 mg/ml).
The activity of PPARdelta agonists is determined in a 3-day assay in exact analogy to the procedure already described for the PPARalpha reporter cell line except that the PPARdelta reporter cell line and a specific PPARdelta agonist was used as a standard to control test efficacy. PPARdelta EC50 values in the range from 0.3 nM to >10 μM were measured for the PPAR agonists of Examples 1 to 69 described in this application. Compounds of the invention of the formula I activate the PPARdelta receptor.

In experiment [1] the target is T3, PPARdelta (Mus musculus, UniProt P35396).
T3 sequence (P35396 1-440): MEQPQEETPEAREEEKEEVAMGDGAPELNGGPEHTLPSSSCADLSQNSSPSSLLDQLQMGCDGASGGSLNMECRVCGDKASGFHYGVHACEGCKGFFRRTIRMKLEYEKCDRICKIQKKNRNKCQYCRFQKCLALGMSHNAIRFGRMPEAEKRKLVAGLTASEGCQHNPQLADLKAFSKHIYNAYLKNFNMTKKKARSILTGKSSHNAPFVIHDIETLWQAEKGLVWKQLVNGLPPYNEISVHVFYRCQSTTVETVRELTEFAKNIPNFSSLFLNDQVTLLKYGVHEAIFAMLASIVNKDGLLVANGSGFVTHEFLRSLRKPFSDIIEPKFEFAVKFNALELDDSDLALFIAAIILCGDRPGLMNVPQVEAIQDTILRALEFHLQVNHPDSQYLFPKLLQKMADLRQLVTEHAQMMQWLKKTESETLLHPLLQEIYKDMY
Conditions: diabetic animal model; cited from earlier work.

Experiment [2] relates to PPARdelta. Conditions: obese, insulin resistant rhesus monkeys; cited from earlier work.
The subject of experiment [3] is PPARdelta/PPARalpha. Conditions: two weeks clinical trials in healthy volunteers; cited from earlier work.
Experiment [4] relates to PPARdelta/PPARalpha. Conditions: rhesus and cynomolgus monkeys; cited from earlier work.

As usually defined, the EC50 is the concentration at which the effect is half-maximal. Take `CCC(Oc1ccc(-c2noc(=O)[nH]2)c(OC(F)F)c1)c1sc([C@H]2CC[C@H](C(F)(F)F)CC2)nc1CN1CCC(C(F)(F)F)CC1` (stereo partly drawn) [Example 61, 3-(2-Difluoromethoxy-4-{1-[2-(trans-1,4-trifluoromethyl-cyclohexyl)-4-(4-trifluoromethyl-piperidin-1-ylmethyl)-thiazol-5-yl]-propoxy}-phenyl)-4H-1,2,4-oxadiazol-5-one]: the EC50 at human PPARalpha is more than 33 µM; at human PPARdelta, 0.007 µM.

Take `O=c1[nH]c(-c2cc(F)c(OCc3sc([C@H]4CC[C@H](C(F)(F)F)CC4)nc3CN3CCC(C(F)(F)F)CC3)cc2OC(F)F)no1` [Example 62, 3-{2-Difluoromethoxy-5-fluoro-4-[2-(trans-1,4-trifluoromethyl-cyclohexyl)-4-(4-trifluoromethyl-piperidin-1-ylmethyl)-thiazol-5-ylmethoxy]-phenyl}-4H-1,2,4-oxadiazol-5-one]: the EC50 on human PPARalpha was more than 33 µM; on human PPARdelta it was 0.052 µM.

Turning to `CCC(Oc1ccc(-c2noc(=O)[nH]2)c(F)c1)c1sc([C@H]2CC[C@H](C(F)(F)F)CC2)nc1C` (stereo partly drawn) [Example 66, 3-(2-Fluoro-4-{1-[4-methyl-2-(trans-1,4-trifluoromethyl-cyclohexyl)-thiazol-5-yl]-propoxy}-phenyl)-4H-1,2,4-oxadiazol-5-one], the EC50 at human PPARalpha was 0.304 µM; on human PPARdelta it was 0.011 µM.

As for `CCC(Oc1ccc(-c2noc(=O)[nH]2)c(F)c1)c1sc([C@H]2CC[C@H](C(F)(F)F)CC2)nc1CN1CCC(C(F)(F)F)CC1` (stereo partly drawn) [Example 68, 3-(2-Fluoro-4-{1-[2-(trans-1,4-trifluoromethyl-cyclohexyl)-4-(4-trifluoromethyl-piperidin-1-ylmethyl)-thiazol-5-yl]-propoxy}-phenyl)-4H-1,2,4-oxadiazol-5-one], the EC50 at human PPARalpha was more than 33 µM; on human PPARdelta it was 0.13 µM.

Regarding `CCCc1c(OCCCOc2ccc(OCC(=O)O)cc2)ccc(C(C)=O)c1O` [Example L-165041], at PPARdelta [1], the plasma cholesterol entry is given as “raises plasma cholesterol”.

In the case of `Cc1cc(SCc2sc(-c3ccc(C(F)(F)F)cc3)nc2C)ccc1OCC(=O)O` [GW501516], in the experiment with PPARdelta [2], the HDL-cholesterol result is on record as “raises HDL-cholesterol”; the “plasma LDL-cholesterol, triglycerides and insulin levels” value is “decreases plasma LDL-cholesterol, triglycerides and insulin levels”.

As to `CCCc1c(OCCCSc2nnc(SCC(=O)O)s2)ccc(C(C)=O)c1O` [YM-16638], the figures for the plasma lipids result in the experiment with PPARdelta/PPARalpha [3] and in the experiment on PPARdelta/PPARalpha [4] were “acts in a similar manner” and “significantly lowers plasma lipids”, respectively.
